One assay addresses T1, BRAF G466V (Homo sapiens, UniProt P15056, G466V).
T1 construct: expressed in transfected cells
Description: Cellular assay of target protein degradation, T-Rex 293 cells stably transfected with HA-BRAF G466V (HA immunofluorescence, high content imaging). It counts as cell-based. The settings on record: T-Rex 293 HA-BRAF G466V; for DC50: half maximal degradation, read-out: BRaf G466V DC50; for Dmax: maximum degradation observed. The method in brief: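 Doxycycline-induced (0.75 ng/mL) cells treated 24 h at 37 °C with compound from 30 nM to 3 pM (0.1% DMSO). After fixation and permeabilisation, HA-tagged BRAF G466V immunostained and quantified by high-content imaging. DC50 and Dmax (percent of control) derived.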

In the next assay the target is T2, BRAF V600E (Homo sapiens, UniProt P15056, V600E).
T2 construct: expressed in transfected cells
Description: Cellular assay of target protein degradation, T-Rex 293 cells stably transfected with HA-BRAF_V600E (HA immunofluorescence, high content imaging). It counts as cell-based. The settings on record: T-Rex 293 HA-BRAF V600E; for DC50: half maximal degradation, read-out: BRaf V600E DC50; for Dmax: maximum degradation observed. Put shortly: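 Doxycycline-induced (1 ng/mL) T-Rex 293 cells expressing HA-BRAF V600E treated 24 h at 37 °C with compound at 1 μM to 0.1 nM final in 0.1% DMSO. Remaining HA-tagged protein quantified by fixed-cell anti-HA immunofluorescence and high-content imaging; DC50 and Dmax (% of control) derived.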

Where only a bound is given, the exact number is not on record here.

This is an account of results in patent publication US12180193B2, “Accelerating fibrosarcoma protein degrading compounds and associated methods of use” (Arvinas Operations, Inc., priority 2020, dated 2024).

T2 sequence (P15056 whole entry V600E): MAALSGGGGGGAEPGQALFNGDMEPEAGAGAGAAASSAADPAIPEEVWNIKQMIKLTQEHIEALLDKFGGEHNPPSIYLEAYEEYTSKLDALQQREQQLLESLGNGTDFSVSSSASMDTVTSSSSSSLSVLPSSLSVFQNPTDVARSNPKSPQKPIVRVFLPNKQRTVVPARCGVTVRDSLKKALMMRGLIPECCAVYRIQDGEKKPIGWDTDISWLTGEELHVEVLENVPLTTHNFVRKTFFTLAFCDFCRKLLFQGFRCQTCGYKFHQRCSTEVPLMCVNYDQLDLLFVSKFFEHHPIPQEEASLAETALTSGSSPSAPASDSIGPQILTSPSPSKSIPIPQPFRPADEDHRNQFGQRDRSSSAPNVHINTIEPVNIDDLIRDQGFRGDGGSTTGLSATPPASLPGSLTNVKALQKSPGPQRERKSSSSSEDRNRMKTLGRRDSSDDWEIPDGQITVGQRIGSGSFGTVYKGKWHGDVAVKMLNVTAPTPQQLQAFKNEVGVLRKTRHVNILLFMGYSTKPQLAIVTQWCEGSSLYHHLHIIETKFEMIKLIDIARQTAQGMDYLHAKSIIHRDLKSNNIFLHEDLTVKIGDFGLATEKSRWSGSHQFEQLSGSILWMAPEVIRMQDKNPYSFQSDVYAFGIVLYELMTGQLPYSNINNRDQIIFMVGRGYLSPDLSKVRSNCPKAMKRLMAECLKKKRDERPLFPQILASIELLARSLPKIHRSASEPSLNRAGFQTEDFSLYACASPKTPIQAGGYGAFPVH
T1 sequence (P15056 whole entry G466V): as the sequence (P15056 whole entry V600E) above, with G466V, E600V counted along it

By DC50 is commonly meant the midpoint of the concentration-degradation curve. In the case of `O=C1CCC(N2Cc3cc(C4CCN(CCC5CN(c6ccc(-c7cnc8[nH]cc(C(=O)c9c(F)ccc(NS(=O)(=O)N%10CC[C@@H](F)C%10)c9F)c8c7)cc6)C5)CC4)ccc3C2=O)C(=O)N1` (stereo partly drawn) [Compound 218, (3R)-N-[3-(5-{4-[3-(2-{4-[2-(2,6-dioxopiperidin-3-yl)-1-oxo-2,3-dihydro-1H-isoindol-5-yl]piperidin-1-yl}ethyl)azetidin-1-yl]phenyl}-1H-pyrrolo[2,3-b]pyridine-3-carbonyl)-2,4-difluorophenyl]-3-fluoropyrrolidine-1-sulfonamide], the values for the DC50 on BRAF G466V and at BRAF V600E were above 30 nM and above 500 nM, respectively.

Broadly, the Dmax is the largest share of the target that was removed. For `O=C1CC[C@H](N2Cc3cc(N4CCN(CC5CCN(c6ccc(-c7cnc8[nH]cc(C(=O)c9c(F)ccc(NS(=O)(=O)N%10CC[C@@H](F)C%10)c9F)c8c7)cc6)CC5)CC4)ccc3C2=O)C(=O)N1` [Compound 219, (3R)-N-{3-[5-(4-{4-[(4-{2-[(3S)-2,6-dioxopiperidin-3-yl]-1-oxo-2,3-dihydro-1H-isoindol-5-yl}piperazin-1-yl)methyl]piperidin-1-yl}phenyl)-1H-pyrrolo [2,3-b]pyridine-3-carbonyl]-2,4-difluorophenyl}-3-fluoropyrrolidine-1-sulfonamide], on BRAF G466V, the DC50 was 1 to 10 nM and the Dmax was above 70%. In addition, at BRAF V600E, the DC50 fell in the range of 5 to 50 nM and the maximal degradation (Dmax) lay in the range of 35 to 70%.

With `O=C1CC[C@@H](N2Cc3cc(N4CCN(CC5CCN(c6ccc(-c7cnc8[nH]cc(C(=O)c9c(F)ccc(NS(=O)(=O)N%10CC[C@@H](F)C%10)c9F)c8c7)cc6)CC5)CC4)ccc3C2=O)C(=O)N1` [Compound 220, (3R)-N-{3-[5-(4-{4-[(4-{2-[(3R)-2,6-dioxopiperidin-3-yl]-1-oxo-2,3-dihydro-1H-isoindol-5-yl}piperazin-1-yl)methyl]piperidin-1-yl}phenyl)-1H-pyrrolo [2,3-b]pyridine-3-carbonyl]-2,4-difluorophenyl}-3-fluoropyrrolidine-1-sulfonamide], at BRAF G466V, the half-maximal degradation concentration (DC50) was in the range of 1 to 10 nM and the Dmax was above 70%. At BRAF V600E, the DC50 lay within 5 to 50 nM and the Dmax was 35 to 70%.

As to `O=C1CC[C@H](N2Cc3cc(N4CC5(CN(CC6CCN(c7ccc(-c8cnc9[nH]cc(C(=O)c%10c(F)ccc(NS(=O)(=O)N%11CC[C@@H](F)C%11)c%10F)c9c8)cc7)CC6)C5)C4)ccc3C2=O)C(=O)N1` [Compound 221, (3R)-N-{3-[5-(4-{4-[(6-{2-[(3S)-2,6-dioxopiperidin-3-yl]-1-oxo-2,3-dihydro-1H-isoindol-5-yl}-2,6-diazaspiro[3.3]heptan-2-yl)methyl]piperidin-1-yl}phenyl)-1H-pyrrolo[2,3-b]pyridine-3-carbonyl]-2,4-difluorophenyl}-3-fluoropyrrolidine-1-sulfonamide], the DC50 at BRAF G466V fell in the range of 1 to 10 nM; at BRAF V600E, 5 to 50 nM. In addition, the Dmax was above 70% at BRAF G466V and 35 to 70% on BRAF V600E.

Regarding `O=C1CC[C@@H](N2Cc3cc(N4CC5(CN(CC6CCN(c7ccc(-c8cnc9[nH]cc(C(=O)c%10c(F)ccc(NS(=O)(=O)N%11CC[C@@H](F)C%11)c%10F)c9c8)cc7)CC6)C5)C4)ccc3C2=O)C(=O)N1` [Compound 222, (3R)-N-{3-[5-(4-{4-[(6-{2-[(3R)-2,6-dioxopiperidin-3-yl]-1-oxo-2,3-dihydro-1H-isoindol-5-yl}-2,6-diazaspiro[3.3]heptan-2-yl)methyl]piperidin-1-yl}phenyl)-1H-pyrrolo[2,3-b]pyridine-3-carbonyl]-2,4-difluorophenyl}-3-fluoropyrrolidine-1-sulfonamide], on BRAF G466V, the DC50 fell in the range of 1 to 10 nM and the Dmax was above 70%. For the same molecule, at BRAF V600E, the DC50 fell in the range of 5 to 50 nM and the Dmax lay in the range of 35 to 70%.
